Measurements published in PubChem BioAssay AID624361 (Broad Institute, 2012).
Results filed as inconclusive are left out.

What follows are molecules tested on LMP1-induced NF-kappaB luciferase reporter cells, luminescence (assay: inhibitors of LMP1-driven NF-kB reporter, dose response, cell-based, EBV LMP1, luciferase, dry powder, set 2 (AID 624361)).
Work on `CN(C)c1ccc2c(c1)[C@@H]1C[C@H](CC(=O)NCc3ccc(Oc4ccccc4)cc3)O[C@@H](CO)[C@@H]1O2` yielded an AC35 of 11.4 µM.
With `Cc1noc(C)c1S(=O)(=O)Nc1ccc2c(c1)C(=O)N([C@@H](C)CO)C[C@H](C)[C@H](CN(C)Cc1ccc(C(F)(F)F)cc1)OCCCC[C@H](C)O2` the AC35 was 33.4 µM.
For `O=C(Nc1ccc(C(F)(F)F)cc1)Nc1ccc2c(c1)[C@H]1C[C@@H](CC(=O)N3CCc4ccccc4C3)O[C@@H](CO)[C@H]1O2`, the AC35 was 21.7 µM.
For `Cc1cc(C(=O)Nc2ccc3c(c2)C(=O)N(C)[C@H]2CC[C@@H](CC(=O)NCc4ccc(-c5ccccc5)cc4)O[C@H]2CO3)no1`, the AC35 was 14.2 µM.
With `C[C@H](CO)N1C[C@H](C)[C@@H](CN(C)S(=O)(=O)c2cccc(F)c2)Oc2ncc(C#CC3CCCCC3)cc2C1=O` the AC35 was 35.3 µM.
With `N#C[C@@H]1[C@H](c2ccc(C#Cc3ccccc3F)cc2)[C@@H](CO)N1C(=O)c1cccnc1` the AC35 was 0.9 µM.
`Cc1ccc(S(=O)(=O)N(C)C[C@H]2Oc3cc(C#Cc4ccncc4)ccc3S(=O)(=O)N([C@@H](C)CO)C[C@H]2C)cc1` was tested, and the AC35 was 11.5 µM.
With `COc1ccccc1C#Cc1ccc2c(c1)O[C@H](CN(C)Cc1cccnc1)[C@H](C)CN([C@H](C)CO)S2(=O)=O` the AC35 was 20.3 µM.
In the case of `CN1C(=O)c2cc(NC(=O)Cc3cccs3)ccc2OC[C@@H]2O[C@H](CC(=O)NCc3ccc(-c4ccccc4)cc3)CC[C@H]21`, the AC35 is reported as 29.4 µM.
Molecule `C[C@@H]1CN([C@H](C)CO)S(=O)(=O)c2ccc(C#C[C@@H](C)O)cc2O[C@H]1CN(C)Cc1ccc(-c2ccccc2)cc1` has an AC35 of 22.4 µM.
Work on `C[C@@H]1CN([C@@H](C)CO)S(=O)(=O)c2ccc(C#Cc3ccncc3)cc2O[C@H]1CN(C)C(=O)Nc1ccc2c(c1)OCO2` yielded an AC35 of 24 µM.
For `N#C[C@H]1[C@H](c2ccc(C#Cc3ccccc3F)cc2)[C@@H](CO)N1C(=O)c1cccnc1`, the AC35 was 22.8 µM.
`COc1ccc(S(=O)(=O)N(C)C[C@@H]2Oc3ncc(/C=C/c4ccccc4)cc3C(=O)N([C@@H](C)CO)C[C@H]2C)cc1` was tested, and the AC35 was 28.6 µM.
For `Cc1noc(C)c1S(=O)(=O)Nc1ccc2c(c1)C(=O)N([C@@H](C)CO)C[C@@H](C)[C@@H](CN(C)Cc1ccc(C(F)(F)F)cc1)OCCCC[C@H](C)O2`, the AC35 was 32.8 µM.
For `Cc1noc(C)c1S(=O)(=O)Nc1ccc2c(c1)C(=O)N([C@@H](C)CO)C[C@H](C)[C@@H](CN(C)Cc1ccc(C(F)(F)F)cc1)OCCCC[C@H](C)O2`, the AC35 was 30.3 µM.
For `COc1ccc(NC(=O)N(C)C[C@@H]2Oc3cc(C#CCC(C)C)ccc3S(=O)(=O)N([C@@H](C)CO)C[C@@H]2C)cc1`, the AC35 was 28.3 µM.
With `COc1ccccc1C#Cc1ccc2c(c1)O[C@H](CN(C)Cc1cccnc1)[C@H](C)CN([C@@H](C)CO)S2(=O)=O` the AC35 was 18.3 µM.
`COc1ccc(S(=O)(=O)N(C)C[C@H]2Oc3ncc(/C=C/c4ccccc4)cc3C(=O)N([C@H](C)CO)C[C@@H]2C)cc1` was tested, and the AC35 was 20.5 µM.
Work on `O=C(C[C@@H]1CC[C@H]2[C@@H](COC[C@H](O)CN2Cc2ccc(Oc3ccccc3)cc2)O1)N1CCc2ccccc2C1` yielded an AC35 of 25.7 µM.
`Cc1noc(C)c1S(=O)(=O)Nc1ccc2c(c1)C(=O)N([C@@H](C)CO)C[C@@H](C)[C@H](CN(C)Cc1ccc(C(F)(F)F)cc1)OCCCC[C@H](C)O2` gave an AC35 of 25.6 µM.
Work on `O=C(C[C@H]1CC[C@H]2[C@@H](COC[C@@H](O)CN2Cc2ccc3c(c2)OCO3)O1)Nc1ccc(-c2ccccc2)cc1` yielded an AC35 of 16.1 µM.
`Cc1noc(C)c1S(=O)(=O)Nc1ccc2c(c1)C(=O)N([C@@H](C)CO)C[C@@H](C)[C@H](CN(C)Cc1ccc(C(F)(F)F)cc1)OCCCC[C@@H](C)O2` showed an AC35 of 31.7 µM.
For `Cc1noc(C)c1S(=O)(=O)Nc1ccc2c(c1)C(=O)N([C@H](C)CO)C[C@H](C)[C@H](CN(C)Cc1ccc(C(F)(F)F)cc1)OCCCC[C@@H](C)O2`, the AC35 was 33.8 µM.
`CC(C)NC(=O)N1Cc2cc(C(=O)NC3Cc4ccccc4C3)nc(-c3cccc(-c4cccnc4)c3)c2[C@@H]1CCO` gave an AC35 of 23.7 µM.
Work on `COc1cccc(C#Cc2ccc([C@@H]3[C@H](C#N)N(C(=O)c4ccccn4)[C@H]3CO)cc2)c1` yielded an AC35 of 26.1 µM.
`COc1ccccc1C#Cc1cnc2c(c1)C(=O)N([C@@H](C)CO)C[C@H](C)[C@@H](CN(C)C(=O)c1ccc3c(c1)OCO3)O2` gave an AC35 of 31.2 µM.
With `O=C(Nc1ccc(C(F)(F)F)cc1)Nc1ccc2c(c1)[C@H]1C[C@H](CC(=O)N3CCc4ccccc4C3)O[C@H](CO)[C@H]1O2` the AC35 was 24.9 µM.
With `C[C@@H]1CN([C@H](C)CO)S(=O)(=O)c2ccc(/C=C/c3ccccc3)cc2O[C@H]1CN(C)C(=O)NC1CCCCC1` the AC35 was 19.3 µM.
With `CC(C)(C)[S@](=O)N1Cc2cc(C(=O)NCC(F)(F)F)nc(-c3cccc(-c4cccc(F)c4)c3)c2[C@@H]1CCO` the AC35 was 8.29 µM.
Molecule `O=C(Nc1ccc(C(F)(F)F)cc1)Nc1ccc2c(c1)[C@@H]1C[C@H](CC(=O)N3CCc4ccccc4C3)O[C@H](CO)[C@@H]1O2` has an AC35 of 8.02 µM.
`COc1cccc(S(=O)(=O)N(C)C[C@H]2Oc3cc(C4=CCCCC4)ccc3S(=O)(=O)N([C@@H](C)CO)C[C@@H]2C)c1` gave an AC35 of 20.2 µM.
In the case of `CC(C)(C)[S@@](=O)N1Cc2cc(C(=O)NCc3ccccc3F)nc(-c3cccc(-c4ccncc4)c3)c2[C@H]1CCO`, the AC35 is reported as 35.5 µM.
Molecule `CN(C)C(=O)c1cccc(-c2cccc(-c3nc(C(=O)NCc4ccccc4)cc4c3[C@@H](CCO)N([S@](=O)C(C)(C)C)C4)c2)c1` has an AC35 of 16.5 µM.
In the case of `C[C@H]1CN([C@@H](C)CO)S(=O)(=O)c2ccc(C#Cc3ccncc3)cc2O[C@H]1CN(C)C(=O)Nc1ccc2c(c1)OCO2`, the AC35 is reported as 14.8 µM.
For `CN(C)c1ccc2c(c1)[C@@H]1C[C@@H](CC(=O)NCc3ccc(Oc4ccccc4)cc3)O[C@H](CO)[C@@H]1O2`, the AC35 was 12.9 µM.
`C[C@@H]1CN([C@@H](C)CO)C(=O)Cc2cc(NC(=O)Cc3ccccc3)ccc2O[C@H]1CN(C)Cc1ccc(C(F)(F)F)cc1` was tested, and the AC35 was 30 µM.
`O=C(C[C@H]1C[C@@H]2c3cc(NS(=O)(=O)c4ccc(F)cc4)ccc3O[C@@H]2[C@@H](CO)O1)NCc1ccc(Oc2ccccc2)cc1` was tested, and the AC35 was 12.3 µM.
`O=C(C[C@H]1C[C@H]2c3cc(NC(=O)c4ccc5c(c4)OCO5)ccc3O[C@H]2[C@H](CO)O1)NCc1ccc(Oc2ccccc2)cc1` showed an AC35 of 20.7 µM.
Work on `Cc1noc(C)c1S(=O)(=O)Nc1ccc2c(c1)C(=O)N([C@H](C)CO)C[C@H](C)[C@@H](CN(C)Cc1ccc(C(F)(F)F)cc1)OCCCC[C@H](C)O2` yielded an AC35 of 22.1 µM.
Molecule `Cc1noc(C)c1S(=O)(=O)Nc1ccc2c(c1)C(=O)N([C@H](C)CO)C[C@@H](C)[C@H](CN(C)Cc1ccc(C(F)(F)F)cc1)OCCCC[C@H](C)O2` has an AC35 of 31.2 µM.
`CC(C)(C)[S@@](=O)N1Cc2cc(C(=O)NCc3ccccc3F)nc(-c3cccc(-c4cccnc4)c3)c2[C@H]1CCO` showed an AC35 of 29.5 µM.
With `COc1cccc(S(=O)(=O)N(C)C[C@@H]2Oc3cc(C4=CCCCC4)ccc3S(=O)(=O)N([C@H](C)CO)C[C@H]2C)c1` the AC35 was 23.4 µM.
Molecule `Cc1noc(C)c1S(=O)(=O)Nc1ccc2c(c1)C(=O)N([C@H](C)CO)C[C@@H](C)[C@@H](CN(C)Cc1ccc(C(F)(F)F)cc1)OCCCC[C@H](C)O2` has an AC35 of 26.4 µM.
In the case of `O=C(C[C@@H]1C[C@H]2c3cc(NC(=O)c4ccc5c(c4)OCO5)ccc3O[C@H]2[C@H](CO)O1)NC1CCCCC1`, the AC35 is reported as 24 µM.
`O=C(C[C@@H]1CC[C@@H]2[C@H](COC[C@H](O)CN2Cc2ccc3c(c2)OCO3)O1)Nc1ccc(-c2ccccc2)cc1` was tested, and the AC35 was 7.79 µM.
For `COc1cccc(S(=O)(=O)N(C)C[C@@H]2Oc3cc(C4=CCCCC4)ccc3S(=O)(=O)N([C@@H](C)CO)C[C@H]2C)c1`, the AC35 was 20.9 µM.
`O=C(C[C@H]1C[C@H]2c3cc(NS(=O)(=O)c4ccc(F)cc4)ccc3O[C@H]2[C@H](CO)O1)NCc1ccc(Oc2ccccc2)cc1` gave an AC35 of 10.3 µM.
For `COc1cccc(C#Cc2ccc([C@@H]3[C@@H](C#N)N(C(=O)c4ccccn4)[C@@H]3CO)cc2)c1`, the AC35 was 18 µM.
`C[C@H]1CN([C@@H](C)CO)C(=O)c2cc(C#Cc3ccccc3F)cnc2O[C@@H]1CN(C)C(=O)C1CCCCC1` gave an AC35 of 24.6 µM.
Molecule `CC(C)c1ccc(NC(=O)C[C@H]2CC[C@H]3[C@@H](COc4ccc(NC(=O)Nc5ccc(F)c(F)c5)cc4C(=O)N3C)O2)cc1` has an AC35 of 18.1 µM.
In the case of `Cc1cc(C(=O)Nc2ccc3c(c2)C(=O)N(C)[C@@H]2CC[C@@H](CC(=O)NCc4ccc(-c5ccccc5)cc4)O[C@H]2CO3)no1`, the AC35 is reported as 4.76 µM.
`O=C(C[C@@H]1CC[C@@H]2[C@H](COC[C@@H](O)CN2Cc2ccc3c(c2)OCO3)O1)Nc1ccc(-c2ccccc2)cc1` showed an AC35 of 10 µM.
Work on `O=C(C[C@@H]1CC[C@@H]2[C@H](COC[C@@H](O)CN2Cc2ccc(Oc3ccccc3)cc2)O1)N1CCc2ccccc2C1` yielded an AC35 of 17.8 µM.
`N#C[C@H]1[C@@H](c2ccc(-c3cccnc3)cc2)[C@@H](CO)N1C(=O)Nc1ccc(F)cc1` showed an AC35 of 34.3 µM.
For `O=C(Nc1ccc(C(F)(F)F)cc1)Nc1ccc2c(c1)[C@@H]1C[C@H](CC(=O)N3CCc4ccccc4C3)O[C@@H](CO)[C@@H]1O2`, the AC35 was 9.85 µM.
`O=C(C[C@H]1C[C@@H]2c3cc(NC(=O)c4ccc5c(c4)OCO5)ccc3O[C@@H]2[C@@H](CO)O1)NCc1ccc(Oc2ccccc2)cc1` was tested, and the AC35 was 26.6 µM.
With `O=C(C[C@@H]1C[C@@H]2c3cc(NS(=O)(=O)c4ccc(F)cc4)ccc3O[C@@H]2[C@@H](CO)O1)NCc1ccc(Oc2ccccc2)cc1` the AC35 was 12.3 µM.
In the case of `CN1C(=O)c2cc(NC(=O)c3ccc(C(F)(F)F)cc3)ccc2OC[C@@H]2O[C@@H](CC(=O)NC3Cc4ccccc4C3)CC[C@H]21`, the AC35 is reported as 11.6 µM.
`COc1ccccc1C#Cc1ccc([C@H]2[C@H](C#N)N(C(=O)C3CC3)[C@H]2CO)cc1` was tested, and the AC35 was 20 µM.
In the case of `O=C(C[C@@H]1C[C@H]2c3cc(NS(=O)(=O)c4ccc(F)cc4)ccc3O[C@H]2[C@@H](CO)O1)NCc1ccc(Oc2ccccc2)cc1`, the AC35 is reported as 14.7 µM.
`COc1ccc(-c2cccc(-c3nc(C(=O)NCC(F)(F)F)cc4c3[C@H](CCO)N([S@@](=O)C(C)(C)C)C4)c2)cc1` showed an AC35 of 21.5 µM.
With `COc1cccc(S(=O)(=O)N(C)C[C@H]2Oc3cc(C4=CCCCC4)ccc3S(=O)(=O)N([C@H](C)CO)C[C@H]2C)c1` the AC35 was 33 µM.
In the case of `CCCNC(=O)c1cc2c(c(-c3cccc(-c4cccc(F)c4)c3)n1)[C@H](CCO)N([S@@](=O)C(C)(C)C)C2`, the AC35 is reported as 30.6 µM.
`N#C[C@H]1[C@H](c2ccc(C#Cc3ccccc3F)cc2)[C@H](CO)N1C(=O)c1cccnc1` was tested, and the AC35 was 20.8 µM.
`Cc1noc(C)c1S(=O)(=O)Nc1ccc2c(c1)C(=O)N([C@@H](C)CO)C[C@H](C)[C@H](CN(C)Cc1ccc(C(F)(F)F)cc1)OCCCC[C@@H](C)O2` showed an AC35 of 28.9 µM.
For `Cc1noc(C)c1S(=O)(=O)Nc1ccc2c(c1)C(=O)N([C@@H](C)CO)C[C@H](C)[C@@H](CN(C)Cc1ccc(C(F)(F)F)cc1)OCCCC[C@@H](C)O2`, the AC35 was 21.5 µM.
Molecule `C[C@@H]1CN([C@H](C)CO)C(=O)Cc2cc(NC(=O)Cc3ccccc3)ccc2O[C@@H]1CN(C)Cc1ccc(C(F)(F)F)cc1` has an AC35 of 31.5 µM.
